The values below come from patent US20040152868A1, “Compositions and methods for modulating guanylyl cyclase signaling receptor (gc-c) activity and for treating meniere's disease” (priority 2001, published 2004).

Where two headings read alike, the source gives them in different places. Bridge positions count the residues as written; N and C are the ends. Square brackets hold non-standard residues; d marks the D form. Ends that are not written are not given here. Peptide text beside a SMILES is read from it. 2Nal = N[C@@H](Cc1ccc2ccccc2c1)C(=O)O

Test [1] addresses T1, guanylyl cyclase (GC-C) receptor (Homo sapiens, UniProt P25092).
T1 construct: stimulation of cGMP in T84 cell cultures may be used as an efficacy assay; endogenous in cells; host or cells: T84 (human colon carcinoma cell line)
In words: cGMP-efficacy on T84 cells (stimulation of cGMP formation). Type of test: cell-based. The settings on record: cGMP formation in T84 cells; for EC50: efficacy assay of Example 1. On the procedure: T84 cells are grown to near confluence in DMEM medium and Ham's F-12 medium (1:1) supplemented with 5% Foetal Calf Serum (FCS), […] in 175 cm^2 culture flasks (Nunc) at 37° C., 5% CO2 and 100% humidity. Cells are harvested in ice-cold PBS and centrifuged at 100×G for 10 min at 4° C. The sedimented cells are lysed in 2.5 ml dist. H2O/culture flask at 0° C. for 30 min and centrifuged at 50,000×G 4° C. for 45 min. The membrane pellet is taken up in binding buffer (50 mM HEPES, 1 mM EDTA, 10 mM MgCl2, pH 7.4) supplemented with 10% sucrose and stored at −80° C. until use.
For stimulation of cGMP formation, cells are seeded in 96-well microtiter plates (Nunc) at a density of 2500 cells/well (˜7576 cells/cm^2) and grown for 3 days before use under the same culture conditions mentioned above.
On the day of analysis growth medium is removed and the T84 cells are washed twice in Dulbeccos Phosphate Buffered Saline™ (D-PBS) containing 6 mM glucose at 37° C. Cells are then incubated at 37° C. for 40 min in the same medium supplemented with 2 mM IBMX (a phosphodiesterase inhibitor) and increasing concentrations of test compounds. The reaction is stopped by addition of ice-cold 20 μl 0.50 M HCl and incubation on ice for further 20 min. 20 μl of the acid extract is used for determination of cGMP by the FlashPlate™ technique and another 20 μl is used for determination of protein content.
Data from the cGMP experiments are treated in an analogueous way and fitted to:
f=(cGMPmax−cGMPbasic)*s/(s+EC50)+cGMPbasic
where cGMPmax is maximal obtainable cGMP and cGMPbasic is the basic level of cellular cGMP. EC50 is the concentration giving half maximum effect and s the concentration of test compound. […]

The target of test [2] is T1, guanylyl cyclase (GC-C) receptor. The following applies: T84 cells, reported values; cited from earlier work.
The conditions of test [3]: rat, in vivo; cited from earlier work.
Test [4] in a line: otoacoustic emission (DP-gram) in rats after 14 days i.p. infusion. Type of test: in vivo, rat. On the procedure:
In this example, rats were given 8 nmol/kg/h of Compound 1 intraperitoneally for 14 days via Alzet osmotic pumps. Otoacoustic emissions were measured before treatment and at the end of treatment. Urine samples were collected during infusion, and the natriuretic effect of Compound 1 was measured by flame spectroscopy.
18 female Sprague-Dawley rats weighing 250 g each were divided into two groups. In total, 8 control animals received vehicle and 10 animals received COMPOUND 1. During the experiment the animals had free access to food and water.
Prior to the study COMPOUND 1 was dissolved in 50 mM phosphate buffer pH 4.0 containing 1% BSA and loaded into Alzet osmotic pumps. The pumps were then surgically inserted into the peritoneum of the rats administering 8 nmol/kg/h for 14 days. After insertion of the pumps the animals were placed in metabolic cages for a week, and samples of urine were collected every 24 hrs from Day 0 through Day 6.
The rats were all tested before the start of the study and at the end of the study. […]
The only DPOAE measured were the amplitude of cubic distortion product 2f1-f2, and always with the level of f1 (L1) 10 dB higher than the level of f2 (L2=L1-10 dB). The output of the ER-10B microphone was feed to a B&K (Nexus) amplifier and analysed on an HP 35670A spectrum. […]

Test [5] can be described thus: standard diuresis assay / renal clearance in conscious rats with arterial pressure and heart rate recording. Type of test: in vivo, rat. As for the experimental part: Male Sprague-Dawley rats weighing 350-370 g (M&B, Denmark) were anaesthetized with a subcutaneous injection of 2 ml/kg of a 1:1 mixture of Hypnorm® (fentanyl citrate 0.315 mg/ml and fluanisone 10 mg/ml) and Dormicum® (midazolam 5 mg/ml) diluted 1:1 in distilled water. Permanent catheters were inserted into the femoral vein and artery. The i.v. line is used for i.v. infusion and the arterial line is used for continuous intra-arterial blood pressure recording and withdrawal of blood samples. A permanent supra-pubic catheter was inserted into the urinary bladder, which allowed fractionated urine collection and determination of urine flow rate. Animals were allowed about one week of recovery before they were used for experiments.
On the day of the experiment, the rat was placed in a lucid restrainer. […] To obtain a stable urine production under these conditions, the rat was slightly water loaded by i.v. infusion of a hypotonic glucose solution (150 mM glucose; 100 μl/min the first 15 min, then 25 μl/min throughout the experiment). The arterial line was connected to a pressure transducer (Baxter Truware: PX-260 Uden, Netherlands) and the pulsatile arterial blood pressure was amplified (×1.000-10.000) via a Hugo Sachs Electronic Tranducer Amplifier Module model 705/1. The analogue signal was digitalized via a 12 bit data acquisition board (Data Translation model DT321) and sampled at 1000 Hz using the Notocord HEM version 4 software for Windows NT. The systolic peak pressure triggered a software heart rate module that calculated heart rate beat-to-beat.
After a 60 minutes equilibration period, fractionated collection of urine was started (t=0). After 4 control periods (4×15 minutes), a bolus injection of Mouse-Guanylin-Asp—OH, 10 μmol/kg i.v was administered and collection of urine was collected in 15 minute periods for 3 hours (period […]). Urine volume was measured gravimetrically. The urine samples were stored at −20° C. until further analysis. Urine was analysed for sodium and potassium using a using a flame spectrophotometer (Instrumentation Laboratory, model IL 943).

T1 sequence (P25092 24-1073): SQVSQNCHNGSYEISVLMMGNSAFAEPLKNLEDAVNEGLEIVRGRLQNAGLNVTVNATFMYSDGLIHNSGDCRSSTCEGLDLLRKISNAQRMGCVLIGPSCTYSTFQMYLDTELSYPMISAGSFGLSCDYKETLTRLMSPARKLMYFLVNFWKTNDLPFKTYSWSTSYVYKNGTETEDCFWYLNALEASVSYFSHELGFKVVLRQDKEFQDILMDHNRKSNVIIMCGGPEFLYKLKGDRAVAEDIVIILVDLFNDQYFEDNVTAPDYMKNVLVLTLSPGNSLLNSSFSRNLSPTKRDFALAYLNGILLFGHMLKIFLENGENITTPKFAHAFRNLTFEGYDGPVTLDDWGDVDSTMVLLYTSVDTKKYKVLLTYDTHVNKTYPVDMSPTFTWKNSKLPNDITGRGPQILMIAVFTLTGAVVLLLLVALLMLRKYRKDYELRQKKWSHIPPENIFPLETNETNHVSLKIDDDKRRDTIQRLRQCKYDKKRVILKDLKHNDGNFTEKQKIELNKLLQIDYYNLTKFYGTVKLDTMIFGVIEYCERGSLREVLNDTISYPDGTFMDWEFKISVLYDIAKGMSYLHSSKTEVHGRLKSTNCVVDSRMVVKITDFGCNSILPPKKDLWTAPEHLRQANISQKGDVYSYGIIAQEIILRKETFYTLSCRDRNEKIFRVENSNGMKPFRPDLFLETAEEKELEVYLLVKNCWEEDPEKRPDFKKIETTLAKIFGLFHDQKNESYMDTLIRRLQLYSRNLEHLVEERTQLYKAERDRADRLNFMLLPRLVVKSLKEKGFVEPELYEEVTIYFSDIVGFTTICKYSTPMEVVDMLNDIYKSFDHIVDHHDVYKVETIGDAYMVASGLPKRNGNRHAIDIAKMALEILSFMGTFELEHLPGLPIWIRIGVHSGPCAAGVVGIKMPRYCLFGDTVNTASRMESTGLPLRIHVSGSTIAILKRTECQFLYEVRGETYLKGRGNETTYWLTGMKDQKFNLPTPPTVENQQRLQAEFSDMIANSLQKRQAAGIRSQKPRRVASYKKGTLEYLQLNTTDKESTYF

With `CC[C@H](C)[C@@H]1NC(=O)[C@H](CCC(=O)O)NC(=O)[C@@H](NC(=O)[C@@H](N)[C@@H](C)O)CSSC[C@@H]2NC(=O)[C@H](C)NC(=O)[C@H](C)NC(=O)[C@H](Cc3ccc(O)cc3)NC(=O)[C@H](C)NC(=O)[C@H](CSSC[C@@H](C(=O)N[C@@H](CC(C)C)C(=O)N[C@@H](CCCCN)C(=O)N[C@@H](CCCCN)C(N)=O)NC(=O)CNC(=O)[C@H]([C@@H](C)O)NC2=O)NC1=O` [Compound 8, des-Pro^1, des-Asn^2Guanylin-LKK-NH2 fully oxidised(1-3, 2-4) (rat/mouse): H-TCEICAYAACTGCLKK-NH2 oxidised(1-3, 2-4)] (H-TCEICAYAACTGCLKK-NH2; disulfide 2-10, 5-13), the EC50 – broadly, the concentration at which the effect is half-maximal – in test [1] (read-out: EC50) was 29 µM.

Consider `CC[C@H](C)[C@@H]1NC(=O)[C@H](CCC(=O)O)NC(=O)[C@@H](NC(=O)[C@@H](N)[C@@H](C)O)CSSC[C@@H]2NC(=O)[C@H](C)NC(=O)[C@H](C)NC(=O)[C@H](Cc3ccc4ccccc4c3)NC(=O)[C@H](C)NC(=O)[C@H](CSSC[C@@H](C(=O)N[C@@H](CC(C)C)C(N)=O)NC(=O)CNC(=O)[C@H]([C@@H](C)O)NC2=O)NC1=O` [Compound 6, des-Pro^1, des-Asn^2[2-Nal^9]Guanylin-L-NH2 (rat/mouse)] (H-TCEICA[2Nal]AACTGCL-NH2; disulfide 2-10, 5-13), for which the EC50 in test [1] (read-out: EC50) is more than 100 µM.

Regarding “guanylin (PGTCEICAYAACTGC; ends and bridges not checked; cysteine pairing not given here; UniProt Q02747 101-115, looked up)”, the “increase in cGMP production reported” value in test [2] is 300 fold. Further, the “diuretic, natriuretic and kaliuretic effect” value in test [3] was “substantial diuretic, natriuretic and kaliuretic effect”.

For the compound “SPNFIWK [Compound 3, H-Ser-Pro-Asn-Phe-Ile-Trp-Lys—NH2]”, in test [1], the EC50 result is “No effect”.

With “Guanylin-Asp-Lys6-NH2 (rat/mouse) [Compound 12]”, the “agonist character at GC-C” value in test [1] is “potent agonist”.

As to `CC[C@H](C)[C@@H]1NC(=O)[C@H](CCC(=O)O)NC(=O)[C@@H](NC(=O)[C@@H](NC(=O)[C@H](CC(N)=O)NC(=O)[C@@H]2CCCN2)[C@@H](C)O)CSSC[C@@H]2NC(=O)[C@H](C)NC(=O)[C@H](C)NC(=O)[C@H](Cc3ccc(O)cc3)NC(=O)[C@H](C)NC(=O)[C@H](CSSC[C@@H](C(N)=O)NC(=O)CNC(=O)[C@H]([C@@H](C)O)NC2=O)NC1=O` [Compound 1, Mouse-Guanylin-NH2, H-PNTC*EICAYAAC*TGC-NH2 (double oxidised C to C and C* to C*)] (H-PNTCEICAYAACTGC-NH2; disulfide 4-12, 7-15), the EC50 in test [1] (read-out: EC50) came out at 6.1 µM. Besides, the “otoacoustic emission at 14 to 16 kHz” value in test [4] (8 nmol/kg/h intraperitoneally for 14 days via Alzet osmotic pumps) was “significant decrease”. Besides, the “change in otoacoustic emission from before to after treatment (2-way ANOVA)” value in test [4] (14 days, most pronounced at the 14 kHz level) was “significant decrease”.

As to Mouse-Guanylin-Asp-OH [Compound 13], the “effect on heart rate” value in test [5] (conscious rats, 10 μmol/kg i.v.) was “no effect”. For the same compound, the “increase in mean arterial blood pressure” value in test [5] (conscious rats, 10 μmol/kg i.v. bolus, immediate and sustained) is reported as 15-20 mmHg. Also, in test [5] (rats, 10 μmol/kg i.v.), the “effect on urinary potassium excretion rate” value is “rapid and transient increase”; the “effect on urinary sodium excretion rate” value is “immediate and sustained increase”; the “effect on urine flow rate” value was “rapid and transient increase”.

With “uroguanylin (NDDCELCVNVACTGCL; ends and bridges not checked; cysteine pairing not given here; UniProt Q16661 97-112, looked up) [synthetic uroguanylin, member of the guanylin peptide family]”, the “increase in cGMP production reported” value in test [2] is 300 fold.

On to “Cyclo(Gly-Glu-Ile-Gly-Ala-Tyr-Ala-Ala-Gly-Thr-Gly-Gln-) (GEIGAYAAGTGQ; cyclic; printed: Gly-Glu-Ile-Gly-Ala-Tyr-Ala-Ala-Gly-Thr-Gly-Gln-) [Compound 4]”, for which, in test [1], the EC50 entry is recorded as “No effect”.

In the case of “des-Pro^1, des-Asn^2Guanylin-LKK-NH2 mono oxidised(1-3) (rat/mouse) [Compound 7]”, the EC50 result in test [1] is “No effect”.

Consider `CC[C@H](C)[C@@H]1NC(=O)[C@H](CCC(=O)O)NC(=O)[C@@H](NC(=O)[C@@H](N)[C@@H](C)O)CSSC[C@@H]2NC(=O)[C@H](C)NC(=O)[C@H](C)NC(=O)[C@H](Cc3ccccc3)NC(=O)[C@H](C)NC(=O)[C@H](CSSC[C@@H](C(=O)N[C@@H](CC(C)C)C(N)=O)NC(=O)CNC(=O)[C@H]([C@@H](C)O)NC2=O)NC1=O` [Compound 5, des-Pro^1, des-Asn^2[Phe^9]Guanylin-L-NH2 (rat/mouse)] (H-TCEICAFAACTGCL-NH2; disulfide 2-10, 5-13 (inferred)), for which the EC50 in test [1] (read-out: EC50) was 28 µM.
